Columns and labels:
[1] = target: T1, CTF18–RFC bound to PCNA (ADP site in RFC3) (Homo sapiens, UniProt P40938); assay: cryo-EM structure ([…] Å without Mg2+; […] Å with Mg2+); assay type: binding; conditions: ADP in AAA+ site of RFC3, not added, probably co-purified; seen with and without Mg2+
T1 construct: same complex as P1; RFC3 with N-terminal His6 tag, insect cells; Ctf8/Dcc1 module not resolved in map; with Chromosome transmission fidelity protein 18 homolog; Replication factor C subunit 2; Replication factor C subunit 4; Replication factor C subunit 5; Sister chromatid cohesion protein DCC1; Chromosome transmission fidelity protein 8 homolog; Proliferating cell nuclear antigen

[2] = target: T2, CTF18–RFC bound to PCNA (ATP sites in Ctf18, RFC2, RFC5) (Homo sapiens, UniProt P35250+P40937+Q8WVB6); assay: as above; assay type: binding; conditions: ATP in AAA+ sites of Ctf18 (adenine density poor), RFC2 and RFC5; RFC4 empty; 0.5 mM ATP, pH 7.5, without Mg2+ or with 5 mM Mg2+ (Mg2+ seen in RFC2 and RFC5); autoinhibited state, closed PCNA
T2 construct: gene CHTF18; seven-subunit complex from insect cells (MultiBac, Sf9/Hi5); N-terminal twin-Strep-TEV tag (Ctf18, RFC2, RFC4) and N-terminal His6 tag (RFC3, RFC5, Dcc1, Ctf8), TEV treated; PCNA from E. coli; Ctf8/Dcc1 module not resolved in map; with Replication factor C subunit 4; Replication factor C subunit 3; Sister chromatid cohesion protein DCC1; Chromosome transmission fidelity protein 8 homolog; Proliferating cell nuclear antigen

Row | cryo-EM structure (2.9 Å without Mg2+; 3.2 Å with Mg2+) [1] | SMILES | cryo-EM structure (2.9 Å without Mg2+; 3.2 Å with Mg2+) [2]
1 | while ADP appears to engage RFC3 | Nc1ncnc2c1ncn2[C@@H]1O[C@H](COP(=O)(O)OP(=O)(O)O)[C@@H](O)[C@H]1O [ADP] | 
2 |  | Nc1ncnc2c1ncn2[C@@H]1O[C@H](COP(=O)(O)OP(=O)(O)OP(=O)(O)O)[C@@H](O)[C@H]1O [ATP] | ATP is bound to subunits Ctf18, RFC2, and RFC5, while ADP appears to engage RFC3
